According to publication PMC11201828, “A Novel Dimeric Short Peptide Derived from α-Defensin-Related Rattusin with Improved Antimicrobial and DNA-Binding Activities” (Biomolecules, 2024):
Values after ≈ are worked out from the molar mass of the structure shown. Positions of bridges follow the written chain, without caps; N, C: chain ends. Residues, ends and D or L forms follow the SMILES beside them. Chains are numbered I, II in the order given.

Columns and labels:
[1] = molecular target: F2 (rattusin fragment, residues 12-18, dimeric hairpin loop region) (rat); assay: RP-HPLC; monomeric F2 (before disulfide bonding) incubated in MIC buffer; formation of the disulfide-bonded dimer monitored by RP-HPLC
Staphylococcus aureus = assay type: cell-based; details: 24 h
Procedure: (§1) The minimal inhibitory concentrations (MICs) of the peptides were determined following the broth microdilution method recommended by the Clinical and Laboratory Standards Institute (CLSI). Briefly, bacteria in their mid-logarithmic growth phase were diluted in Mueller–Hinton broth (MHB) (Difco, Franklin Lakes, NJ, USA) and aliquoted into a 96-well microtiter plate at a density of 4 × 10^6 CFU/well. The assay included both Gram-negative bacteria (Escherichia coli, Salmonella typhimurium, and Pseudomonas aeruginosa) and Gram-positive bacteria (Bacillus subtilis, Staphylococcus aureus, and Staphylococcus epidermidis), as well as methicillin-resistant Staphylococcus aureus strains (MRSA: CCARM 3089, CCARM 3090, CCARM 3095). The samples were subjected to a two-fold serial dilution before being added to the wells, and the plate was incubated at 37 °C for 24 h. The MIC was defined as the lowest peptide concentration that prevented visible bacterial growth. All experiments were conducted in triplicate and included appropriate growth and sterility controls.

Bacillus subtilis = assay type: cell-based; details: 24 h
Procedure: as §1

[2] = test system: Staphylococcus epidermidis; assay type: cell-based; details: 24 h
Procedure: as §1

Salmonella typhimurium = assay type: cell-based; details: murium, 24 h
Procedure: as §1

bacterial strains = assay type: cell-based; details: strain not given; see Tables 1 and 2
Procedure: as §1

Escherichia coli = assay type: cell-based; details: 24 h
Procedure: as §1

Pseudomonas aeruginosa = assay type: cell-based; details: 24 h
Procedure: as §1

plasmid DNA (pHIS2) = assay: DNA-binding gel retardation assay; details: plasmid pHIS2 145 μg/mL, 37 °C, 1 h, 1% agarose gel; Figure 5
Procedure: We evaluated the DNA-binding ability of F2 and F2 (C4S) monomeric peptides using gel retardation experiments. The concentration of plasmid DNA (pHIS2) was fixed at 145 μg/mL. The peptide was serially diluted in a binding buffer consisting of 10 mM Tris-HCl (pH 8.0), 5% glucose, 50 μg/mL BSA, 1 mM EDTA, and 20 mM KCl. This solution was then mixed with the DNA and incubated at 37 °C for 1 h. After incubation, the DNA–peptide mixture was stained with DNA gel loading dye. The samples were analyzed using 1% agarose gel electrophoresis in 0.5× TAE buffer. Plasmid bands were detected with a UV illuminator (Bio-Rad, Hercules, CA, USA).

S. aureus cell membranes = assay: SYTOX Green uptake assay; assay type: cell-based, Staphylococcus aureus; details: 32 µM F2, 4 µM melittin, 16 µM buforin-2, Figure 3
Procedure: The membrane permeabilization activity of the peptides was determined using the SYTOX Green uptake assay, as described previously. S. aureus was cultured in LB broth at 37 °C until it reached an optical density (O.D.) at 600 nm of 0.4, indicative of the mid-logarithmic phase. The cells were then washed and diluted to an O.D. 600 of 0.05 using 1× PBS buffer. The dye (SYTOX Green nucleic acid stain) was added to the bacterial suspension at a concentration of […], and the mixture was incubated at 4 °C for 18 h with agitation in the dark. The SYTOX Green-treated bacteria were placed in a quartz cell, where they were simultaneously exposed to the positive control melittin (2× MIC), the negative control buforin-2 (2× MIC), and the F2 dimer (2× MIC). An F-4500 FL fluorescence spectrophotometer (Shimadzu, Kyoto, Japan) was used to monitor fluorescence (excitation 485 nm, emission 520 nm).

[3] = test system: S. aureus cytoplasmic membrane; assay: Membrane depolarization assay, DiSC3-(5) dye; assay type: cell-based, Staphylococcus aureus; details: intact S. aureus; 32 µM F2, 4 µM melittin, 16 µM buforin-2; peptide added after 300 s; Figure 2
Procedure: The cytoplasmic membrane depolarization activity of the peptides was assessed using the membrane-potential-sensitive dye DiSC3-(5), following methodologies previously described in the literature. Staphylococcus aureus was cultured in Luria–Bertani (LB) broth at 37 °C until reaching an optical density (O.D.) at 600 nm of 0.3–0.4, indicative of mid-logarithmic phase growth. The cells were then washed with a buffer containing 20 mM glucose and 5 mM HEPES, and the cell suspension was diluted to an O.D. 600 of 0.05 in the same buffer. Potassium chloride (KCl) was added to achieve a final concentration of 100 mM to equilibrate potassium ion levels. The concentrations used for each peptide in our membrane depolarization assays were based on their respective MICs: 32 µM for F2, 4 µM for Melittin, and 16 µM for Buferin-2.
Fluorescence was monitored using an F-4500 FL fluorescence spectrophotometer (Shimadzu, Kyoto, Japan) with excitation and emission wavelengths set at 622 nm and 670 nm, respectively. Melittin, known for its membrane-disrupting properties, served as a positive control, while buforin-2, which translocates across membranes without causing depolarization, acted as a negative control. Both melittin and buforin-2 were tested at concentrations twice their minimal inhibitory concentration (MIC) levels.

E. coli ML-35 = assay: ONPG hydrolysis assay (inner membrane permeability); assay type: cell-based, Escherichia coli; details: 32 µM F2, 4 µM melittin, 16 µM buforin-2, Figure 4
Procedure: The internal membrane permeability was assessed using the ONPG hydrolysis assay, as described previously. E. coli ML-35p, which constitutively expresses cytoplasmic β-galactosidase and periplasmic β-lactamase, is resistant to ampicillin and deficient in lactose permease. E. coli ML-35 was incubated in LB broth containing ampicillin at 37 °C until the optical density (O.D.) at 600 nm reached 1.0. The cells were then washed with a buffer consisting of 97% 1× PBS and 3% LB and diluted to an O.D. 600 of 0.4 in the same buffer. A mixture of 50 μL of serially diluted peptide and 20 μL of dye (ONPG, final concentration 3 mM) was added to 100 μL of the bacterial suspension in a sterilized 96-well plate. Melittin served as a positive control, while buforin-2 was used as a negative control. The hydrolysis of ONPG was measured using a PHOMO Elisa reader (Autobio, Zhengzhou, China) at 405 nm for each time period.

MRSA CCARM 3089 = assay type: cell-based, methicillin-resistant Staphylococcus aureus; details: CCARM 3089, 24 h
Procedure: as §1

MRSA CCARM 3095 = assay type: cell-based, methicillin-resistant Staphylococcus aureus; details: CCARM 3095, 24 h
Procedure: as §1

MRSA CCARM 3090 = assay type: cell-based, methicillin-resistant Staphylococcus aureus; details: CCARM 3090, 24 h
Procedure: as §1

| stoichiometry N [1] | Compound | MIC (Staphylococcus aureus) [µg/mL] | MIC (Bacillus subtilis) [µg/mL] | MIC [2] [µg/mL] | MIC (Salmonella typhimurium) [µg/mL] | MIC (bacterial strains) [µg/mL] | MIC (Escherichia coli) [µg/mL] | MIC (Pseudomonas aeruginosa) [µg/mL] | peptide concentration giving DNA band retardation (plasmid DNA (pHIS2)) [µM] | SYTOX Green uptake (fluorescence intensity) (S. aureus cell membranes) | cytoplasmic membrane depolarization (DiSC3-(5) fluorescence) [3] | ONPG hydrolysis (absorbance at 405 nm) (E. coli ML-35) | MIC (MRSA CCARM 3089) [µg/mL] | MIC (MRSA CCARM 3095) [µg/mL] | MIC (MRSA CCARM 3090) [µg/mL] |
| --- | --- | --- | --- | --- | --- | --- | --- | --- | --- | --- | --- | --- | --- | --- | --- |
| 2 | F2 (rattusin fragment, residues 12-18, dimeric hairpin loop region) (peptide) |  |  |  |  |  |  |  |  |  |  |  |  |  |  |
|  | CC(C)[C@H](NC(=O)[C@H](CCCNC(=N)N)NC(=O)[C@@H](N)CCCNC(=N)N)C(=O)N[C@@H](CSSC[C@H](NC(=O)[C@@H](NC(=O)[C@H](CCCNC(=N)N)NC(=O)[C@@H](N)CCCNC(=N)N)C(C)C)C(=O)N[C@@H](CCCNC(=N)N)C(=O)N[C@@H](CC(N)=O)C(=O)N[C@H](C(N)=O)[C@@H](C)O)C(=O)N[C@@H](CCCNC(=N)N)C(=O)N[C@@H](CC(N)=O)C(=O)N[C@H](C(N)=O)[C@@H](C)O [F2] (I: H-RRVCRNT-NH2 / II: H-RRVCRNT-NH2; disulfide I:4-II:4; N-terminus assumed) | 58 (≈ 32.1 µM) | 29 (≈ 16.1 µM) | 15 (≈ 8.31 µM) | 15 (≈ 8.31 µM) | 15 (≈ 8.31 µM) | 15 (≈ 8.31 µM) | 15 (≈ 8.31 µM) | 4 | did not show a similar increase in fluorescence intensity | did not cause any membrane depolarization | did not alter the absorbance | 58 (≈ 32.1 µM) | 58 (≈ 32.1 µM) | 116 (≈ 64.3 µM) |
